From ChEMBL document CHEMBL1201862, “PubChem BioAssay data set” (2004)
Values joined by “and” are separate entries in the source; they are usually repeats but may differ in a detail not shown here. Equal entries are not always repeated.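 Following 48 hours of exposure in 96-well plates, responses at five concentrations were used to interpolate endpoints linearly. Abbreviation: GI50, concentration required for 50% inhibition of growth.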 Active and inactive are the calls of the source. Cut-off read from the data, not from the text of the source: active = GI50 up to about 1.1 µM and inactive = higher.

Legend:
Assay in all cases: NCI-60 cell line screen, 48 h
SNB-75 = test system: SNB-75
RXF 393 = test system: RXF 393
CCRF-CEM = test system: CCRF-CEM
RPMI-8226 = test system: RPMI-8226
SR = test system: SR
Malme-3M = test system: Malme-3M
COLO 205 = test system: COLO 205
T47D = test system: T47D
NCI-H460 = test system: NCI-H460
A549 = test system: A549
SK-MEL-2 = test system: SK-MEL-2
NCI-H23 = test system: NCI-H23
NCI/ADR-RES = test system: NCI/ADR-RES
M14 = test system: M14
HOP-92 = test system: HOP-92
786-0 = test system: 786-0
MCF7 = test system: MCF7
HOP-62 = test system: HOP-62
MOLT-4 = test system: MOLT-4
MDA-MB-435 = test system: MDA-MB-435
IGROV-1 = test system: IGROV-1
UACC-62 = test system: UACC-62
U-251 = test system: U-251
HL-60 = test system: HL-60
ACHN = test system: ACHN
CAKI-1 = test system: CAKI-1
SK-OV-3 = test system: SK-OV-3
SF-268 = test system: SF-268
OVCAR-4 = test system: OVCAR-4
SW-620 = test system: SW-620
SK-MEL-5 = test system: SK-MEL-5
K562 = test system: K562
SK-MEL-28 = test system: SK-MEL-28
OVCAR-5 = test system: OVCAR-5
NCI-H522 = test system: NCI-H522
EKVX = test system: EKVX
OVCAR-3 = test system: OVCAR-3
KM12 = test system: KM12
MDA-N = test system: MDA-N
HT-29 = test system: HT-29
OVCAR-8 = test system: OVCAR-8
SN12C = test system: SN12C
HCC 2998 = test system: HCC 2998
LOX IMVI = test system: LOX IMVI
HCT-15 = test system: HCT-15
UACC-257 = test system: UACC-257
DU-145 = test system: DU-145

C=CCNc1nc(C#N)c(N)s1
GI50 (SNB-75): > 10 µM (inactive)
GI50 (RXF 393): > 10 µM (inactive)
GI50 (CCRF-CEM): > 10 µM (inactive)
GI50 (RPMI-8226): > 10 µM (inactive)
GI50 (SR): > 10 µM (inactive)
GI50 (Malme-3M): > 10 µM (inactive)
GI50 (COLO 205): > 10 µM (inactive)
GI50 (T47D): > 10 µM (inactive)
GI50 (NCI-H460): > 10 µM (inactive)
GI50 (A549): > 10 µM (inactive)
GI50 (SK-MEL-2): > 10 µM (inactive)
GI50 (NCI-H23): > 10 µM (inactive)
GI50 (NCI/ADR-RES): > 10 µM (inactive)
GI50 (M14): > 10 µM (inactive)
GI50 (HOP-92): > 10 µM (inactive)
GI50 (786-0): > 10 µM (inactive)
GI50 (MCF7): > 10 µM (inactive)
GI50 (HOP-62): > 10 µM (inactive)
GI50 (MOLT-4): > 10 µM (inactive)
GI50 (MDA-MB-435): > 10 µM (inactive)
GI50 (IGROV-1): > 10 µM (inactive)
GI50 (UACC-62): > 10 µM (inactive)
GI50 (U-251): > 10 µM (inactive)
GI50 (HL-60): > 10 µM (inactive)
GI50 (ACHN): > 10 µM (inactive)
GI50 (CAKI-1): > 10 µM (inactive)
GI50 (SK-OV-3): > 10 µM (inactive)
GI50 (SF-268): > 10 µM (inactive)
GI50 (OVCAR-4): > 10 µM (inactive)
GI50 (SW-620): > 10 µM (inactive)
GI50 (SK-MEL-5): > 10 µM (inactive)
GI50 (K562): > 10 µM (inactive)
GI50 (SK-MEL-28): > 10 µM (inactive)
GI50 (OVCAR-5): > 10 µM (inactive)

CCc1c(C)c(C#N)c(=S)n(C2OC(COC(C)=O)C(OC(C)=O)C(OC(C)=O)C2OC(C)=O)c1C (stereo unspecified)
GI50 (SNB-75): 0.0113 µM (active)
GI50 (NCI-H522): > 100 µM (inactive) and 52.8 µM (inactive)
GI50 (EKVX): 87.1 µM (inactive)
GI50 (OVCAR-3): > 100 µM (inactive)
GI50 (KM12): > 100 µM (inactive)
GI50 (CCRF-CEM): > 100 µM (inactive)
GI50 (MDA-N): > 100 µM (inactive)
GI50 (SR): > 100 µM (inactive)
GI50 (Malme-3M): > 100 µM (inactive)
GI50 (HT-29): > 100 µM (inactive)
GI50 (OVCAR-8): > 100 µM (inactive)
GI50 (SN12C): > 100 µM (inactive)
GI50 (COLO 205): > 100 µM (inactive)
GI50 (T47D): > 100 µM (inactive)
GI50 (NCI-H460): > 100 µM (inactive)
GI50 (A549): 92.9 µM (inactive)
GI50 (SK-MEL-2): 13 µM (inactive)
GI50 (NCI-H23): > 100 µM (inactive)
GI50 (NCI/ADR-RES): > 100 µM (inactive)
GI50 (M14): 39.4 µM (inactive) and 46.2 µM (inactive)
GI50 (MCF7): > 100 µM (inactive)
GI50 (MOLT-4): > 100 µM (inactive)
GI50 (MDA-MB-435): > 100 µM (inactive)
GI50 (IGROV-1): > 100 µM (inactive)
GI50 (HL-60): > 100 µM (inactive)
GI50 (HCC 2998): > 100 µM (inactive)
GI50 (LOX IMVI): > 100 µM (inactive)
GI50 (CAKI-1): > 100 µM (inactive)
GI50 (SF-268): > 100 µM (inactive) and 73.5 µM (inactive)
GI50 (HCT-15): > 100 µM
GI50 (OVCAR-4): > 100 µM (inactive) and 80.7 µM (inactive)
GI50 (UACC-257): > 100 µM (inactive)
GI50 (SW-620): > 100 µM (inactive)
GI50 (SK-MEL-5): > 100 µM (inactive)
GI50 (K562): > 100 µM (inactive)
GI50 (SK-MEL-28): > 100 µM (inactive)
GI50 (DU-145): > 100 µM (inactive)
